Measured values from ChEMBL document CHEMBL6096632, “Synthesis and evaluation of N-arylindazole-3-carboxamide derivatives as novel antiviral agents against SARS-CoV-2” (Bioorg Med Chem Lett, 2024).

Legend:
[1] = Selectivity index, ratio of CC50 for African green monkey Vero cells to EC50 for antiviral activity against SARS-CoV-2 expressing nucleocapsid protein infected in African green monkey Vero cells; type: toxicity, cell-based; conditions: read-out: Ratio CC50/EC50
SARS-CoV-2 = assay: Antiviral activity against SARS-CoV-2 expressing nucleocapsid protein infected in African green monkey Vero cells assessed as inhibition of viral growth by Hoechst 33342 staining based immunofluorescence analysis; type: functional, organism-based; conditions: Severe acute respiratory syndrome coronavirus 2, Vero
[2] = Cytotoxicity against African green monkey Vero cells incubated for 24 hrs by WST reagent based EZ-cytox assay; type: toxicity, cell-based; conditions: chlorocebus sabaeus
[3] = tested on: Middle East respiratory syndrome-related coronavirus; assay: Antiviral activity against MERS-CoV expressing spike protein infected in African green monkey Vero cells assessed as inhibition of viral growth by Hoechst 33342 staining based immunofluorescence analysis; type: functional, organism-based
CYP2C9 = CYP2C9 (Homo sapiens, UniProt P11712); assay: Inhibition of CYP2C9 in human liver microsomes using tolbutamide as substrate at 10 uM preincubated for 5 mins followed by substrate and NADPH addition and measured after 20 mins by HPLC-MS/MS analysis; type: ADME, Microsome; conditions: probe tolbutamide, time 25 min
Sequence of CYP2C9 (P11712 whole entry): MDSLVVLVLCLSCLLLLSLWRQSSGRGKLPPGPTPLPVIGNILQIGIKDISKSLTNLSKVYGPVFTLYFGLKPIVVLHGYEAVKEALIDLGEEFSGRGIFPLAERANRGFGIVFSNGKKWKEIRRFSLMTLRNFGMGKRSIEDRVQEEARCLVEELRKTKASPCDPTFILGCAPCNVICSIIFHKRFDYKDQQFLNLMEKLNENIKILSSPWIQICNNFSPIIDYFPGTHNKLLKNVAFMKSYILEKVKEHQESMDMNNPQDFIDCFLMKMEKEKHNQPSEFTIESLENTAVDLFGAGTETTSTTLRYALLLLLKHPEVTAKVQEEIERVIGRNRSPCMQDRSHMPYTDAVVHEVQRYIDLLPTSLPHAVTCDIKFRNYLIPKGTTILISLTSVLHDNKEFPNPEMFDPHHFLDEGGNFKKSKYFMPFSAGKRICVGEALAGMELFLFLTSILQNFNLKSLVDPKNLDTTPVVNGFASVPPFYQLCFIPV

hERG (KCNH2) = hERG (KCNH2) (Homo sapiens, UniProt Q12809); assay: Inhibition of human ERG at 10 uM by fluorescence polarization relative to control; type: toxicity
Sequence of hERG (KCNH2) (Q12809 whole entry): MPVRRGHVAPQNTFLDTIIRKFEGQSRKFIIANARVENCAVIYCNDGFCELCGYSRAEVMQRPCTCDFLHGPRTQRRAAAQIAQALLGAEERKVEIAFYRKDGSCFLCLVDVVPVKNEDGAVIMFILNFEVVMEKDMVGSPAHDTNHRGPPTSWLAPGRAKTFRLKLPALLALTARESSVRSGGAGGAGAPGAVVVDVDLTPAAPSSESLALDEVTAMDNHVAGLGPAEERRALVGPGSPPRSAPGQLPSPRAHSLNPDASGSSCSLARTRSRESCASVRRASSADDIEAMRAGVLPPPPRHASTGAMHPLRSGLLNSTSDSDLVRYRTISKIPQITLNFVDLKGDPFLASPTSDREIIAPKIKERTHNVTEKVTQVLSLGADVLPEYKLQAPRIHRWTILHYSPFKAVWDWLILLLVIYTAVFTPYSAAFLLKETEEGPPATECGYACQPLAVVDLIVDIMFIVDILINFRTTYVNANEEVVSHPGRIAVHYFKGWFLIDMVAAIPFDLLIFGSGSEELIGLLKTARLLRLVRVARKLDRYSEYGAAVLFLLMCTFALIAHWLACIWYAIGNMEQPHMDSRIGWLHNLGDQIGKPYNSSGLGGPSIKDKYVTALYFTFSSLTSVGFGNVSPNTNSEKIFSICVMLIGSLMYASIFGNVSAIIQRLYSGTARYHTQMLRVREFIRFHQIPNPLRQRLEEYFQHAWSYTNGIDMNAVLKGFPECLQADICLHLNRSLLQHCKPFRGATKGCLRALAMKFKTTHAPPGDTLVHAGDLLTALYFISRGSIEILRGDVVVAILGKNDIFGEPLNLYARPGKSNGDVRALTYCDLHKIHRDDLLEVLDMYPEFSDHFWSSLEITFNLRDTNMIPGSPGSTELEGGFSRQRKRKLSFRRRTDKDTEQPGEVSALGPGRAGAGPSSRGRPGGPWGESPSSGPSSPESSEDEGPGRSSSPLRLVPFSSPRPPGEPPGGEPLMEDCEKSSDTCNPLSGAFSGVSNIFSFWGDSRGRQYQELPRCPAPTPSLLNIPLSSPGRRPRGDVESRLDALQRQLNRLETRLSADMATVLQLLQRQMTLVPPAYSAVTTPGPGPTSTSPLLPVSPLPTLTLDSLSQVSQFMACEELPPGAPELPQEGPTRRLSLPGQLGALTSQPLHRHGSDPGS

[4] = Metabolic stability in mouse liver microsomes assessed as parent compound remaining preincubated for 10 mins followed by NADPH addition and measured after 30 mins by HPLC-MS/MS analysis; type: ADME, Microsome; conditions: time 40 min, read-out: Stability
[5] = Cytotoxicity against CHO-K1 cells incubated for 24 hrs by WST reagent based EZ-cytox assay; type: toxicity, cell-based, Cricetulus griseus; conditions: chinese hamster
[6] = Cytotoxicity against mouse NIH3T3 cells incubated for 24 hrs by WST reagent based EZ-cytox assay; type: toxicity, cell-based
[7] = Metabolic stability in human liver microsomes assessed as parent compound remaining preincubated for 10 mins followed by NADPH addition and measured after 30 mins by HPLC-MS/MS analysis; type: ADME, Microsome; conditions: time 40 min, read-out: Stability
[8] = Cytotoxicity against HFL1 cells incubated for 24 hrs by WST reagent based EZ-cytox assay; type: toxicity, cell-based; conditions: human
CYP3A4 = CYP3A4 (Homo sapiens, UniProt P08684); assay: Inhibition of CYP3A4 in human liver microsomes using […] as substrate at 10 uM preincubated for 5 mins followed by substrate and NADPH addition and measured after 20 mins by HPLC-MS/MS analysis; type: ADME, Microsome; conditions: probe sorafenib, time 25 min
Sequence of CYP3A4 (P08684 whole entry): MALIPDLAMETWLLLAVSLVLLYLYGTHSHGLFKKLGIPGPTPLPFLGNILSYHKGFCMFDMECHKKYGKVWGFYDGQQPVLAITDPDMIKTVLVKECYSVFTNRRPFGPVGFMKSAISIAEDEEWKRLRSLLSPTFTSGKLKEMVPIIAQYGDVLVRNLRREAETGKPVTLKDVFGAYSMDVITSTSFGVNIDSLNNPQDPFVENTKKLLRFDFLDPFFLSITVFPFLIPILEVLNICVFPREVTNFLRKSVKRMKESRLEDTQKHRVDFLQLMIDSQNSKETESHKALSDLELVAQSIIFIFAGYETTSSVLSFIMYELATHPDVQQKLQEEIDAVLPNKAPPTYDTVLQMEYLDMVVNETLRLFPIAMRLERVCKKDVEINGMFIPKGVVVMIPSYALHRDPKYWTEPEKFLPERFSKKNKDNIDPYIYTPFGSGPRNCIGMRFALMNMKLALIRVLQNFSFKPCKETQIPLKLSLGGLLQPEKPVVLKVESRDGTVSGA

CYP2D6 = CYP2D6 (Homo sapiens, UniProt P10635); assay: Inhibition of CYP2D6 in human liver microsomes using dextromethorphan as substrate at 10 uM preincubated for 5 mins followed by substrate and NADPH addition and measured after 20 mins by HPLC-MS/MS analysis; type: ADME, Microsome; conditions: probe dextromethorphan, time 25 min
Sequence of CYP2D6 (P10635 whole entry): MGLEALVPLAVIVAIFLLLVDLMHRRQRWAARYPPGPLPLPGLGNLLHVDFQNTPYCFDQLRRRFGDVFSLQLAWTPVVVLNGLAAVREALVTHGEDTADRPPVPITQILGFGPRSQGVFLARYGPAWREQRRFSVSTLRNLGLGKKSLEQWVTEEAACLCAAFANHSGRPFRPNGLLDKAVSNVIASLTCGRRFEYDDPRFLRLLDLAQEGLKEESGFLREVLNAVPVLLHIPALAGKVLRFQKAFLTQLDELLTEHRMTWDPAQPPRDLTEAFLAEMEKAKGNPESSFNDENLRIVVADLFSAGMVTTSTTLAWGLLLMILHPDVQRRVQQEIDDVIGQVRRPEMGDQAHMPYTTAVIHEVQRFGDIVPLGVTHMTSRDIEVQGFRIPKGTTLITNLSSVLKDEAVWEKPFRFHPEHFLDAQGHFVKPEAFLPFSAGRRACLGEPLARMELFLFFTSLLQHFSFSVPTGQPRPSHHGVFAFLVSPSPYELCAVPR

[9] = Cytotoxicity against mouse L929 cells incubated for 24 hrs by WST reagent based EZ-cytox assay; type: toxicity, cell-based
CYP1A2 = biological target: T1, CYP1A2 (Homo sapiens, UniProt P05177); assay: Inhibition of CYP1A2 in human liver microsomes using phenacetin as substrate at 10 uM preincubated for 5 mins followed by substrate and NADPH addition and measured after 20 mins by HPLC-MS/MS analysis; type: ADME, Microsome; conditions: probe phenacetin, time 25 min
T1 sequence (P05177 whole entry): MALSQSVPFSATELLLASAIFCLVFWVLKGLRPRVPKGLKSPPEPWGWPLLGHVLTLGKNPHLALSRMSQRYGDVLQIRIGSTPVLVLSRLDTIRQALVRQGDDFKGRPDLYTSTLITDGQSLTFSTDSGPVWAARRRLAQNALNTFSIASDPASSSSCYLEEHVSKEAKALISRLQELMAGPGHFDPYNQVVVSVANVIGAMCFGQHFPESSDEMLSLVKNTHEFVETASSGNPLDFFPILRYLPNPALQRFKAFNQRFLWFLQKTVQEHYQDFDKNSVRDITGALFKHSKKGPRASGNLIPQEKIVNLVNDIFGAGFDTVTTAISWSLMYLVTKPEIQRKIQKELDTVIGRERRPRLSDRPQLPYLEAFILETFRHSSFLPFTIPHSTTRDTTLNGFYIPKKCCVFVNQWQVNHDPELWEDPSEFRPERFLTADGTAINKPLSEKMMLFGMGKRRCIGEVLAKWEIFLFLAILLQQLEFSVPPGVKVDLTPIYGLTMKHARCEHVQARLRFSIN

CYP2C19 = CYP2C19 (Homo sapiens, UniProt P33261); assay: Inhibition of CYP2C19 in human liver microsomes using S-mephenytoin as substrate at 10 uM preincubated for 5 mins followed by substrate and NADPH addition and measured after 20 mins by HPLC-MS/MS analysis; type: ADME, Microsome; conditions: probe S-mephenytoin, time 25 min
Sequence of CYP2C19 (P33261 whole entry): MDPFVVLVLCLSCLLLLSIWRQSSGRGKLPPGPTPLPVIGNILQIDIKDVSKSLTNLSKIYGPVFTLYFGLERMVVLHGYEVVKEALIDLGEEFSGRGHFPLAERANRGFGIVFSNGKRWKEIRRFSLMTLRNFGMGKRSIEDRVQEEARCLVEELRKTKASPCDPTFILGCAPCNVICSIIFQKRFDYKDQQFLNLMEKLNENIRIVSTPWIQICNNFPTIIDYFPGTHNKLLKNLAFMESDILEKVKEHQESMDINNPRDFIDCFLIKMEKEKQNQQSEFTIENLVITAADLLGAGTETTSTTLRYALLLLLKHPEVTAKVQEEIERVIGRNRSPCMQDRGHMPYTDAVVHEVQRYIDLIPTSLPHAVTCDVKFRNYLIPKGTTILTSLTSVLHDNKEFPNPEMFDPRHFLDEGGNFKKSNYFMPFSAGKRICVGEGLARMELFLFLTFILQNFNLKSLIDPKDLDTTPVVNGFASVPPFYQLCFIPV

SMILES | selectivity ratio [1] | EC50 (SARS-CoV-2) [µM] | CC50 at 24 h [2] [µM] | also measured
O=C(Nc1ccccc1F)c1n[nH]c2ccc(Cl)cc12 | 1 | > 25 | > 25 | 
N#Cc1ccccc1NC(=O)c1n[nH]c2ccc(Cl)cc12 | 1 | > 25 | > 25 | 
O=C(Nc1cc(Cl)cc(Cl)c1)c1n[nH]c2ccccc12 | 1 | > 25 | > 25 | EC50 [3]: 1.7 µM
O=C(Nc1cc(Cl)cc(Cl)c1)c1n[nH]c2cc(Cl)ccc12 | 1 | > 25 | > 25 | 
CCC(CC)COC(=O)[C@H](C)N[P@](=O)(OC[C@H]1O[C@@](C#N)(c2ccc3c(N)ncnn23)[C@H](O)[C@@H]1O)Oc1ccccc1 |  |  | > 25 | 
O=C(Nc1cc(Cl)cc(Cl)c1)c1n[nH]c2cc(F)ccc12 | > 21.4 | 1.2 | > 25 | 
O=C(Nc1cccc(F)c1)c1n[nH]c2ccc(Cl)cc12 | 1 | > 25 | > 25 | 
O=C(NC1CCCCC1)c1n[nH]c2ccc(Cl)cc12 | 1 | > 25 | > 25 | 
Cc1cc(C)cc(NC(=O)c2n[nH]c3ccc(Cl)cc23)c1 | > 11.1 | 2.3 | > 25 | 
N#Cc1ccc(NC(=O)c2n[nH]c3ccc(Cl)cc23)cc1 | 1 | > 25 | > 25 | 
O=C(Nc1ccccc1Cl)c1n[nH]c2ccc(Cl)cc12 | 1 | > 25 | > 25 | 
O=C(Nc1cccc([N+](=O)[O-])c1)c1n[nH]c2ccc(Cl)cc12 | 1 | > 25 | > 25 | 
Cc1cccc(NC(=O)c2n[nH]c3ccc(Cl)cc23)c1 | 1 | > 25 | > 25 | 
O=C(Nc1cc(Cl)cc(Cl)c1)c1n[nH]c2ccc(F)cc12 | 1 | > 25 | > 25 | 
N#Cc1cccc(NC(=O)c2n[nH]c3ccc(Cl)cc23)c1 | > 13.7 | 1.8 | > 25 | 
CCCCNC(=O)c1n[nH]c2ccc(Cl)cc12 | 1 | > 25 | > 25 | 
O=C(Nc1cccc(C(F)(F)F)c1)c1n[nH]c2ccc(Cl)cc12 | > 8.8 | 2.8 | > 25 | 
O=C(Nc1cccc(OC(F)(F)F)c1)c1n[nH]c2ccc(Cl)cc12 | > 4.6 | 5.5 | > 25 | 
O=C(Nc1cc(Cl)cc(Cl)c1)c1n[nH]c2ccc(Cl)cc12 | > 36 | 0.69 | > 20 | inhibition at 20 min, 10 µM (CYP2C9): 14%; inhibition at 10 µM (hERG (KCNH2)): < 1%; remaining at 0.5 h [4]: 48%; CC50 at 24 h [5]: > 100 µM; CC50 at 24 h [6]: > 100 µM; remaining at 0.5 h [7]: 97%; CC50 at 24 h [8]: > 100 µM; inhibition at 20 min, 10 µM (CYP3A4): 54%; inhibition at 20 min, 10 µM (CYP2D6): 1%; CC50 at 24 h [9]: > 100 µM; inhibition at 20 min, 10 µM (CYP1A2): 11%; inhibition at 20 min, 10 µM (CYP2C19): 8%
O=C(Nc1ccc(F)cc1)c1n[nH]c2ccc(Cl)cc12 | 1 | > 25 | > 25 | 
O=C(Nc1ccc(Cl)cc1)c1n[nH]c2ccc(Cl)cc12 | 1 | > 25 | > 25 | 
